In ChEMBL document CHEMBL1201862, “PubChem BioAssay data set” (2004):
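Cells were grown in 96-well plates and exposed to each compound for 48 hours at five concentrations; endpoints were interpolated linearly between bracketing concentrations, or set to the highest concentration if not reached. At the GI50, growth is halved.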 Calls of active or inactive are those of the source. Cut-off read from the data, not from the text of the source: active = GI50 up to about 1.1 µM and inactive = higher.

Columns and labels:
Assay in all cases: NCI tumour cell line growth inhibition, 48 h
[1] = test system: UACC-257
[2] = test system: SK-MEL-28
[3] = test system: UO-31
[4] = test system: SK-MEL-2
[5] = test system: IGROV-1
[6] = test system: NCI/ADR-RES
[7] = test system: OVCAR-3
[8] = test system: K562
[9] = test system: SK-MEL-5
[10] = test system: SNB-75
[11] = test system: MCF7
[12] = test system: HCT-116
[13] = test system: LOX IMVI
[14] = test system: RPMI-8226
[15] = test system: SK-OV-3
[16] = test system: NCI-H460
[17] = test system: SF-539
[18] = test system: A549
[19] = test system: SR
[20] = test system: A498

SMILES	GI50 [1]	GI50 [2]	GI50 [3]	GI50 [4]	GI50 [5]	GI50 [6]	GI50 [7]	GI50 [8]	GI50 [9]	GI50 [10]	GI50 [11]	GI50 [12]	GI50 [13]	GI50 [14]	GI50 [15]	GI50 [16]	GI50 [17]	GI50 [18]	GI50 [19]	GI50 [20]
COc1cc(-c2cc(=O)c3c(O)c(OC)c(OC)c(OC)c3o2)cc(OC)c1OC [GARDENIN]	> 100000 nM (inactive)	> 100000 nM (inactive)	7360 nM (inactive)	> 55600 nM (inactive)	68400 nM (inactive)	7290 nM (inactive)	3360 nM (inactive)	> 100000 nM (inactive)	11000 nM (inactive)	2230 nM (inactive)	> 100000 nM (inactive)	4500 nM (inactive)	6310 nM (inactive)	> 44700 nM (inactive)	5450 nM (inactive)	5010 nM (inactive)	17100 nM (inactive)	7180 nM (inactive)	> 100000 nM (inactive)	2920 nM (inactive)
Cc1cc2c(cc1C)[n+]([O-])c(C(F)(F)F)c(C(=O)c1ccccc1)[n+]2[O-]	3020 nM (inactive)	4520 nM (inactive)	484 nM (active)	4890 nM (inactive)	1370 nM (inactive)	2490 nM (inactive)	227 nM (active)	2270 nM (inactive)	1730 nM (inactive)	3320 nM (inactive)	3270 nM (inactive)	2240 nM (inactive)	2170 nM (inactive)	1240 nM (inactive)	4000 nM (inactive)	1260 nM (inactive)	5070 nM (inactive)	1420 nM (inactive)	527 nM (active)	4440 nM (inactive)
CC(C)=CCc1c2c(c3occ(-c4ccc(O)c(O)c4)c(=O)c3c1O)C=CC(C)(C)O2 [POMIFERIN]	1910 nM (inactive)	2510 nM (inactive)	1540 nM (inactive)	2600 nM (inactive)	2110 nM (inactive)	2180 nM (inactive)	1660 nM (inactive)	2290 nM (inactive)	2960 nM (inactive)	3610 nM (inactive)	1340 nM (inactive)	1850 nM (inactive)	2190 nM (inactive)	1670 nM (inactive)	6710 nM (inactive)	1640 nM (inactive)	1910 nM (inactive)	2550 nM (inactive)	204 nM (active)	15300 nM (inactive)
CCCCCCCCCCCCCCCCCCOCC(O)COP(=O)(O)OCC1OC(n2cc(F)c(=O)[nH]c2=O)CC1O (stereo not given)	12800 nM (inactive)	14100 nM (inactive)	1160 nM (inactive)	21400 nM (inactive)	11400 nM (inactive)	2050 nM (inactive)	13700 nM (inactive)	10400 nM (inactive)	4010 nM (inactive)	2890 nM (inactive)	492 nM (active)	1290 nM (inactive)	658 nM (active)	2170 nM (inactive)	12800 nM (inactive)	678 nM (active)	72.1 nM (active)	510 nM (active)	533 nM (active)	2660 nM (inactive)
CC(C)NCCCNc1c2ccccc2nc2cccc([N+](=O)[O-])c12	44.5 nM (active)	144 nM (active)	123 nM (active)	15.7 nM (active)	< 1 nM (active)	794 nM (active)	8.34 nM (active)	2.62 nM (active)	3.54 nM (active)	30.8 nM (active)	< 1 nM (active)	26.2 nM (active)	10.1 nM (active)	2.19 nM (active)	56.6 nM (active)	2.27 nM (active)	48.4 nM (active)	3.58 nM (active)	< 1 nM (active)	16.4 nM (active)
